The residual activity is the signal under treatment as a percentage of the control signal.

The target of assay [1] is Protein kinase C alpha type (Homo sapiens) (UniProt P17252). The assay is described as follows: Residual activity of PKCalpha at 10 uM by microplate scintillation counting.
The target of assay [2] is Receptor tyrosine-protein kinase erbB-4 (Homo sapiens) (UniProt Q15303). The assay is described as follows: Residual activity of ERBB4 at 0.1 uM by microplate scintillation counting.
The target of assay [3] is T1, Serine/threonine-protein kinase Sgk2 (Homo sapiens) (UniProt Q9HBY8).
T1 sequence (whole entry): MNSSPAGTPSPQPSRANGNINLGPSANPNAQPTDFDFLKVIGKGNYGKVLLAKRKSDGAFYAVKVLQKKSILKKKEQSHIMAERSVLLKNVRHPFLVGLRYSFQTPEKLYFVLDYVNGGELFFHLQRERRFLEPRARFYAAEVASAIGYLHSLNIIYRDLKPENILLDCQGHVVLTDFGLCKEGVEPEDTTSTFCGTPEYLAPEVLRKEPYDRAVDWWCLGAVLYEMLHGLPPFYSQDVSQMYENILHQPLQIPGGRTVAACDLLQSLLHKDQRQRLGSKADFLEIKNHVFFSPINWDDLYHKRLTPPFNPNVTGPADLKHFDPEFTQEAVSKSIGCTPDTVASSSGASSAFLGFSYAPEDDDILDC
Put plainly: Residual activity of SGK2 at 10 uM by microplate scintillation counting.

Assay [4] deals with Protein kinase C theta type (Homo sapiens) (UniProt Q04759). Put plainly: Residual activity of PKCtheta at 0.1 uM by microplate scintillation counting.
Protein kinase C theta type (Homo sapiens), sequence (Q04759 whole entry, looked up): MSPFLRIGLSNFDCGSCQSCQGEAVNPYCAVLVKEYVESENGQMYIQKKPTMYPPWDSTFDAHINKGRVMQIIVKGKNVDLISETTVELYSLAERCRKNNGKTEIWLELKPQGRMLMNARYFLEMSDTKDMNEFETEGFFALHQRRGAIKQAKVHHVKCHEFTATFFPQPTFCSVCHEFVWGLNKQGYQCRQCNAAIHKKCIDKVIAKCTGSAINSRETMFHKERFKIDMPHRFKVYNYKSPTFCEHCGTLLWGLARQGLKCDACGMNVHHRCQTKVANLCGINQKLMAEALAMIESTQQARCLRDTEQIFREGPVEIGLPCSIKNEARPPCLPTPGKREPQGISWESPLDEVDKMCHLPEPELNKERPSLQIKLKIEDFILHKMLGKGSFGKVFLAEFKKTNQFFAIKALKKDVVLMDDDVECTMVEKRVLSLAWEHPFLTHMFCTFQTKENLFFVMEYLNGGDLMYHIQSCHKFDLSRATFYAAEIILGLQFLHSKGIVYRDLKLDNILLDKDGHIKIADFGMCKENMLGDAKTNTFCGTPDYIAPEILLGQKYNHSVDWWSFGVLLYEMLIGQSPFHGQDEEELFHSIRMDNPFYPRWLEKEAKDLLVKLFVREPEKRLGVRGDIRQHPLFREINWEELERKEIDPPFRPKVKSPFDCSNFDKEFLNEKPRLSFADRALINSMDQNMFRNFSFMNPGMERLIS
In assay [5] the target is Platelet-derived growth factor receptor alpha (Homo sapiens) (UniProt P16234). Put plainly: Residual activity of PDGFRalpha at 1 uM by microplate scintillation counting.
Platelet-derived growth factor receptor alpha (Homo sapiens), sequence (P16234 whole entry): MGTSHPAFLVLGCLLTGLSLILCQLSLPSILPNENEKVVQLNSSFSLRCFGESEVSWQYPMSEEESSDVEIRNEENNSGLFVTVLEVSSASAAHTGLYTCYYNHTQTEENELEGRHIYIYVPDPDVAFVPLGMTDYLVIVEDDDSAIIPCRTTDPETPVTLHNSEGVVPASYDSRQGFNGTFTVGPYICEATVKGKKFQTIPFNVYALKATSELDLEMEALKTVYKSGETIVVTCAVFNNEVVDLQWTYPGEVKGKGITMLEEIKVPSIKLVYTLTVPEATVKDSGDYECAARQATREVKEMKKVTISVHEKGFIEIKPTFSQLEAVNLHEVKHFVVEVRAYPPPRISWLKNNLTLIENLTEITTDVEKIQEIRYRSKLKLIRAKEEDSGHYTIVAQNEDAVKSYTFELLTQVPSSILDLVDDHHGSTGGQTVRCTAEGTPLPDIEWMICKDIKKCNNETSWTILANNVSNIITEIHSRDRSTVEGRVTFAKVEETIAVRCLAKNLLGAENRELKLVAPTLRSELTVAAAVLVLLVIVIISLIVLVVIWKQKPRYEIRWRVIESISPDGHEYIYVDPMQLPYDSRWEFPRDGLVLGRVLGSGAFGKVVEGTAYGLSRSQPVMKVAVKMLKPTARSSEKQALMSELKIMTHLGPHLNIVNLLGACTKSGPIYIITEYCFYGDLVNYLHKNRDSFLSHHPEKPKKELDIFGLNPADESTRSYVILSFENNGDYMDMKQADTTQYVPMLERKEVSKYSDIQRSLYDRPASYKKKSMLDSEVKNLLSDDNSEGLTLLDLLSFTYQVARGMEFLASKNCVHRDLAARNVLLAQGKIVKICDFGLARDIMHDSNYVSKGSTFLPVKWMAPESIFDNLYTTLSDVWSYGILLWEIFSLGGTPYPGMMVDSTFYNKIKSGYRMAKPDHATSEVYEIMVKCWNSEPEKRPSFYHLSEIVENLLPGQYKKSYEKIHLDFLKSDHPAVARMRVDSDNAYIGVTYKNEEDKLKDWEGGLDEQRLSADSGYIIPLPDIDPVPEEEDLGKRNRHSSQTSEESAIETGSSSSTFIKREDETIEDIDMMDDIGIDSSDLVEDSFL
Assay [6] deals with RAC-gamma serine/threonine-protein kinase (Homo sapiens) (UniProt Q9Y243). The assay is described as follows: Residual activity of AKT3 at 1 uM by microplate scintillation counting.
RAC-gamma serine/threonine-protein kinase (Homo sapiens), sequence (Q9Y243 whole entry): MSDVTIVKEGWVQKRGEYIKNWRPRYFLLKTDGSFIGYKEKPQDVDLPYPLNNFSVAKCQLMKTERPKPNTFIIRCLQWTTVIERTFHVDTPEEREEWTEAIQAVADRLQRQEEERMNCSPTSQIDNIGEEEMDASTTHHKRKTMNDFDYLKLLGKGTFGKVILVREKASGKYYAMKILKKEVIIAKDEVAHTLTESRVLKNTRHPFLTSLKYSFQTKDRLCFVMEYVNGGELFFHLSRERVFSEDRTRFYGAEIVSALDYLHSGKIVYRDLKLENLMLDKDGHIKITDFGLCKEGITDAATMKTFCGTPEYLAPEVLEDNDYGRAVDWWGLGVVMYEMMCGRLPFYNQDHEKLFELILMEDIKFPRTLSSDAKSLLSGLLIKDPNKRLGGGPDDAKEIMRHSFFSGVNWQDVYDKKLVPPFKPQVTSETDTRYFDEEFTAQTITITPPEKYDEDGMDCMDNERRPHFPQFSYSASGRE
Assay [7] concerns the target Insulin-like growth factor 1 receptor (Homo sapiens) (UniProt P08069). Put plainly: Residual activity of IGF1R at 1 uM by microplate scintillation counting.
Assay [8] concerns the target G protein-coupled receptor kinase 4 (Homo sapiens) (UniProt P32298). Put plainly: Residual activity of GRK4 at 10 uM by microplate scintillation counting.
Assay [9] deals with NT-3 growth factor receptor (Homo sapiens) (UniProt Q16288). Put plainly: Residual activity of TRK-C at 10 uM by microplate scintillation counting.
NT-3 growth factor receptor (Homo sapiens), sequence (Q16288 32-839 limits assumed): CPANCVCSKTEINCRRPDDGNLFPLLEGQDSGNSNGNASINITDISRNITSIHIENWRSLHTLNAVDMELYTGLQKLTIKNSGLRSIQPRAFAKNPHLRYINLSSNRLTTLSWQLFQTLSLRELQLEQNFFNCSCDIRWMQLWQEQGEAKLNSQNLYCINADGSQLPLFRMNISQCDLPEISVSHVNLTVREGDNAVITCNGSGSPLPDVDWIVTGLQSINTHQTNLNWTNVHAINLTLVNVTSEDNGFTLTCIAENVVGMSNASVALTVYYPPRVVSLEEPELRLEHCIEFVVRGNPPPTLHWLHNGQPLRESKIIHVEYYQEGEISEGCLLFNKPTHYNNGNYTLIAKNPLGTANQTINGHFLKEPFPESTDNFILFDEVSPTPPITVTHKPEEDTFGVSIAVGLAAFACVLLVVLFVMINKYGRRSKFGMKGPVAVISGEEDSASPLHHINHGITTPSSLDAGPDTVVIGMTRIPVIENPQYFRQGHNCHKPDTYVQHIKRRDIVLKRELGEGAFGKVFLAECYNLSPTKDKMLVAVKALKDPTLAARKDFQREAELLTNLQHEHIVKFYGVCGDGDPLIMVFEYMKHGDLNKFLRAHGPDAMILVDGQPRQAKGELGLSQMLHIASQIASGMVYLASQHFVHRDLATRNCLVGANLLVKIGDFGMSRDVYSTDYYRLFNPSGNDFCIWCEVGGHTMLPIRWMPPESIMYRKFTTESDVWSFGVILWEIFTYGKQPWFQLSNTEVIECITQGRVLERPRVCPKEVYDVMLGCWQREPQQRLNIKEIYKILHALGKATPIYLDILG
Assay [10] deals with Tyrosine-protein kinase receptor UFO (Homo sapiens) (UniProt P30530). Put plainly: Residual activity of AXL at 0.1 uM by microplate scintillation counting.
Assay [11] addresses T2, Serine/threonine-protein kinase Nek11 (Homo sapiens) (UniProt Q8NG66).
T2 sequence (whole entry): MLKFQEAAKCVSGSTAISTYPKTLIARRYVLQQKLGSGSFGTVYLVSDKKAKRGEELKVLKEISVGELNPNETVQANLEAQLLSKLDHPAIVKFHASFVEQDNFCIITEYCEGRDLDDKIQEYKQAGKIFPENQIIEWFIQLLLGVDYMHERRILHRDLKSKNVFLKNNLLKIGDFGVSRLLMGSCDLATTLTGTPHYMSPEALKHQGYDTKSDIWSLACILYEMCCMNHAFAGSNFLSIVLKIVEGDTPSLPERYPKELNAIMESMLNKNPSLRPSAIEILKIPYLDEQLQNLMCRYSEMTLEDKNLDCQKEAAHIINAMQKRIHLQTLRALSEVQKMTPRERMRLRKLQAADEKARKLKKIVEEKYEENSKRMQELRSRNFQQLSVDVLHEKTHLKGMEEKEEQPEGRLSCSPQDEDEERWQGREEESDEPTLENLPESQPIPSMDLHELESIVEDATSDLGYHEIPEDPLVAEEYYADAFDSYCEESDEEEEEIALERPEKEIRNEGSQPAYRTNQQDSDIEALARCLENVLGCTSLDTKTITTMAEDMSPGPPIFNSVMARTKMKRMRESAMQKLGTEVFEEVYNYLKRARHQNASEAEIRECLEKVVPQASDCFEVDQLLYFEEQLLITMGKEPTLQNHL
Put plainly: Residual activity of NEK11 at 10 uM by microplate scintillation counting.

Assay [12] relates to Epidermal growth factor receptor (Homo sapiens), P00533 [L858R]. Put plainly: Residual activity of EGFR L858R mutant at 1 uM by microplate scintillation counting.
Assay [13] concerns the target T3, Protein kinase C iota type (Homo sapiens) (UniProt P41743).
T3 sequence (whole entry): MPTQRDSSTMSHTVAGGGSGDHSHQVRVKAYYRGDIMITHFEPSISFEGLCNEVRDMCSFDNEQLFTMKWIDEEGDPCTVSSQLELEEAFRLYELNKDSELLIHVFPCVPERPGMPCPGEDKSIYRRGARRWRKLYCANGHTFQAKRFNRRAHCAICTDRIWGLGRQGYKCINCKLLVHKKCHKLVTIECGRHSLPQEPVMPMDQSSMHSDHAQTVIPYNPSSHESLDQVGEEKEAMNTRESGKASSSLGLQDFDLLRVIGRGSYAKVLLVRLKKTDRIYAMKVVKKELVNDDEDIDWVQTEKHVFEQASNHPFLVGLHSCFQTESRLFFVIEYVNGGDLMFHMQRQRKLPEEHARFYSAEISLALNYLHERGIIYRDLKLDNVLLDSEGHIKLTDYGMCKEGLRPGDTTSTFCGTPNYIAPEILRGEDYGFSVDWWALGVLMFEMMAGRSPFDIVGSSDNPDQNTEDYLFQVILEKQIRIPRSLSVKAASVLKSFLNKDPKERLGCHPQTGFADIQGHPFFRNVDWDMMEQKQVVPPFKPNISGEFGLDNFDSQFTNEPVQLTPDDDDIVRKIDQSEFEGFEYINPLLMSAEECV
The assay is described as follows: Residual activity of PKCiota at 1 uM by microplate scintillation counting.

Assay [14] addresses Misshapen-like kinase 1 (Homo sapiens) (UniProt Q8N4C8). The assay is described as follows: Residual activity of MINK1 at 10 uM by microplate scintillation counting.
For assay [15], the target named is Tyrosine-protein kinase BTK (Homo sapiens) (UniProt Q06187). Put plainly: Residual activity of BTK at 1 uM by microplate scintillation counting.

Misshapen-like kinase 1 (Homo sapiens), sequence (Q8N4C8 whole entry, looked up): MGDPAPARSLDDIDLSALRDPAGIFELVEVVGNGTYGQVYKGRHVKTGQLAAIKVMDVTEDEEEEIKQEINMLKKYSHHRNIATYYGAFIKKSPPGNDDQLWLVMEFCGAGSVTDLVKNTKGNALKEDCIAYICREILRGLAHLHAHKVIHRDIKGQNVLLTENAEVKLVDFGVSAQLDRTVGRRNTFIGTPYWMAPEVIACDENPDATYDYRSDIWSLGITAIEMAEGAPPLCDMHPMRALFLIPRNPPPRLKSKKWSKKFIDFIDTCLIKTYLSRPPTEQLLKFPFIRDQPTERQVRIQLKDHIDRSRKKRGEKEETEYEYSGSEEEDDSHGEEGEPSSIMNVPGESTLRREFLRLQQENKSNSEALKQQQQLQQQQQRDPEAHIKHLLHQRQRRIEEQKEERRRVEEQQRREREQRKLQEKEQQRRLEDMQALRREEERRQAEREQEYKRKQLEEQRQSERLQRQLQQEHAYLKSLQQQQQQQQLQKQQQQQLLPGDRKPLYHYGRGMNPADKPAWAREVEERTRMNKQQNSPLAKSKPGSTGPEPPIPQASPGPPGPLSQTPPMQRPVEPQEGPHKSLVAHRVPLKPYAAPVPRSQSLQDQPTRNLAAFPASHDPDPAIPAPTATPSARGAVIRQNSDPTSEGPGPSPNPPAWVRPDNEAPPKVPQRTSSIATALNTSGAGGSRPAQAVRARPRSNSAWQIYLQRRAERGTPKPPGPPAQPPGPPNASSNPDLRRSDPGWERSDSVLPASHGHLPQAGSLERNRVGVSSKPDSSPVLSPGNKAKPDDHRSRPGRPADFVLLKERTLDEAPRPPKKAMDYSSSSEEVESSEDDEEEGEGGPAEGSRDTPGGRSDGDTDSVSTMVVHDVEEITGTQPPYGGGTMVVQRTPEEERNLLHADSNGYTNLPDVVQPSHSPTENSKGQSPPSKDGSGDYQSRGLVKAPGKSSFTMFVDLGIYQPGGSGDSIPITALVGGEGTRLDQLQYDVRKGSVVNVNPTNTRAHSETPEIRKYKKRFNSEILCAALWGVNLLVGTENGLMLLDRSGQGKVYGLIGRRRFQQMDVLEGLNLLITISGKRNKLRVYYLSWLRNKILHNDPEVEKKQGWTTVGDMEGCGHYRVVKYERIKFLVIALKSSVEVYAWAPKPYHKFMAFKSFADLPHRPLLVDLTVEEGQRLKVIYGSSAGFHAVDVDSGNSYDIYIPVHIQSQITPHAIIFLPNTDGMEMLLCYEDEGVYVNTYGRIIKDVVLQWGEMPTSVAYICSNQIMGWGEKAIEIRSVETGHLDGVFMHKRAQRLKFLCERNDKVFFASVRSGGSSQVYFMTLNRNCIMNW

For the compound `COc1cc2c(Oc3ccc(-c4nc5ccccc5s4)cc3)ncnc2cc1OCCCN1CCN(C)CC1`, the residual activity is 80% in [1]; 87% in assay [2]; 101% in assay [3]; 100% in assay [4]; 57% in assay [5]; 88% in assay [6]. For the same compound, the residual activity in assay [7] turned out to be 100%; in assay [8], 171%; in assay [9], 188%; in [10], 117%; in [11], 113%; in assay [12] it was 63%. In addition, the residual activity amounted to 116% in assay [13], 21% in [14] and 124% in assay [15].
`COc1cc2c(Oc3ccc(-c4nc5ccccc5s4)cc3)ncnc2cc1OCCCN1CCCC1`: the residual activity in assay [1] was found to be 61%; in [2] it was 102%; in [3] it was 88%; in assay [4] it was 95%; in assay [5], 59%; in assay [6] it was 98%. Moreover, the residual activity in assay [7] came out at 100%; in assay [8], 159%; in assay [9], 166%; in [10], 96%; in assay [11], 81%; in [12], 72%. Moreover, the residual activity in assay [13] came out at 103%; in assay [14], 36%; in [15], 163%.
As to `COc1cc2c(Oc3ccc(-c4nc5ccccc5s4)cc3F)ncnc2cc1OCCCN1CCN(C)CC1`, the residual activity in assay [1] is 50%; in assay [2], 100%; in assay [3] it was 111%; in assay [4] it was 95%; in [5], 73%; in assay [6], 89%. The residual activity is 115% in assay [7]; 154% in [8]; 132% in [9]; 104% in assay [10]; 83% in [11]; 80% in assay [12]. Also, the residual activity in assay [13] stood at 102%; in assay [14], 20%; in assay [15], 114%.

The values above are taken from ChEMBL document CHEMBL1152560, “Substituted 2-arylbenzothiazoles as kinase inhibitors: hit-to-lead optimization” (Bioorg Med Chem, 2009).
